According to BindingDB's records for doi:10.1021/jm950655o (University of Arizona, 1996):

Molecular target: Delta-type opioid receptor (Cavia porcellus)
Assay: Inhibition of binding [3H]cyclo[D-Pen2,p-Cl,-Phe4,D-Pen5] enkephalin to Opioid receptor delta 1 of guinea pig brain membrane (GPB) homogenates.

IC50: > 10 µM
SMILES: CC[C@H](C)[C@H](NC(=O)[C@H](CCCN=C(N)N)NC(=O)[C@H](CCCN=C(N)N)NC(=O)[C@H](CC(C)C)NC(=O)[C@H](Cc1ccccc1)NC(=O)[C@H](Cc1ccc(O)cc1)NC(=O)CNC(=O)[C@@H](N)Cc1ccc(O)cc1)C(=O)N[C@@H](CCCN=C(N)N)C(=O)N1CCC[C@H]1C(=O)N[C@@H](CCCCN)C(N)=O
